Reference: patent US20160297833A1, “THIENOPYRIMIDINES AS MKNK1 AND MKNK2 INHIBITORS” (BAYER PHARMA AKTIENGESELLSCHAFT, priority 2013, published 2016)

Biological target: T1, human full-length MKNK1 (Homo sapiens, UniProt Q9BUB5, T385D)
T1 construct: GST (N); purchased Carna Biosciences 02-145; host or cells: insect cells (baculovirus expression system)
Test: MKNK1 kinase high ATP assay (TR-FRET)
Format: biochemical
Details: for IC50: Table 1, MKNK1 kinase high ATP assay, 2 mM ATP, read-out: MKNK1 IC50; for Activity-Ratio MKNK1: Table 2, ratio of the IC50-value of an R-enantiomer and its corresponding S-enantiomer
How it was run: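 Full-length human MKNK1 (T385D) preincubated 15 min at 22 °C with compound in HEPES pH 7.5/MgCl2/DTT buffer; reaction with 2 mM ATP (final) and 0.06 μM biotinylated peptide (final), 30 min at 22 °C.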

T1 sequence (Q9BUB5 1-424 isoform Q9BUB5-2 T344D): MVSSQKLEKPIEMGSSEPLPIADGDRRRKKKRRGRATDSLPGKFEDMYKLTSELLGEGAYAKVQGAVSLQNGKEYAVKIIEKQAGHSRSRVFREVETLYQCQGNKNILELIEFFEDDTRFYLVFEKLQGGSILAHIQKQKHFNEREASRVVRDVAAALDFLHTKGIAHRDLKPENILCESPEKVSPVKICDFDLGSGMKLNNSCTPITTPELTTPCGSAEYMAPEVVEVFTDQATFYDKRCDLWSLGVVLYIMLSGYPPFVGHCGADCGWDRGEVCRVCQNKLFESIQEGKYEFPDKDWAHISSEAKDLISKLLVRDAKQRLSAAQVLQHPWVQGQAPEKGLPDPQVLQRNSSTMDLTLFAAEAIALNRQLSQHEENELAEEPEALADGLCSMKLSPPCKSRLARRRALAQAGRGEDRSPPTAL

COc1cc2[nH]ncc2cc1Nc1ncnc2sc3c(c12)CC[C@H](C(=O)N1CC(F)C1)C3 [Example 163, (3-fluoroazetidin-1-yl){(7S)-4-[(6-methoxy-1H-indazol-5-yl)amino]-5,6,7,8-tetrahydro[1]benzothieno[2,3-d]pyrimidin-7-yl}methanone]
IC50: 0.6 nM

COc1cc2[nH]ncc2cc1Nc1ncnc2sc3c(c12)CC[C@H](C(=O)N(C)CCCN(C)C)C3 [Example 54, (7S)—N-[3-(Dimethylamino)propyl]-4-[(6-methoxy-1H-indazol-5-yl)amino]-N-methyl-5,6,7,8-tetrahydro[1]benzothieno[2,3-d]pyrimidine-7-carboxamide]
IC50: 0.4 nM

C[C@H]1COCCN1C(=O)[C@H]1CCc2c(sc3ncnc(Nc4cc5cn[nH]c5cc4F)c23)C1 [Example 227, {(7S)-4-[(6-Fluoro-1H-indazol-5-yl)amino]-5,6,7,8-tetrahydro[1]benzothieno[2,3-d]pyrimidin-7-yl}[(3S)-3-methylmorpholin-4-yl]methanone]
IC50: 7 nM

CC(C)OC(=O)NC[C@@H](C)Oc1cc2[nH]ncc2cc1Nc1ncnc2sc3c(c12)CC[C@H](C(=O)N(C)C)C3 [Example 261, Propan-2-yl {(2R)-2-[(5-{[(7S)-7-(dimethylcarbamoyl)-5,6,7,8-tetrahydro[1]benzothieno[2,3-d]pyrimidin-4-yl]amino}-1H-indazol-6-yl)oxy]propyl}carbamate]
IC50: 3.2 nM

COc1cc2[nH]ncc2cc1Nc1ncnc2sc3c(c12)CC[C@H](C(=O)N1CC(C)(O)C1)C3 [Example 36, (3-hydroxy-3-Methylazetidin-1-yl){(7S)-4-[(6-methoxy-1H-indazol-5-yl)amino]-5,6,7,8-tetrahydro[1]benzothieno[2,3-d]pyrimidin-7-yl}methanone]
IC50: 0.5 nM

CC(C)Oc1cc2[nH]ncc2cc1Nc1ncnc2sc3c(c12)CC[C@H](C(=O)N1C[C@H](O)[C@@H](O)C1)C3 [Example 92, [(3S,4S)-3,4-Dihydroxypyrrolidin-1-yl][(7S)-4-{[6-(propan-2-yloxy)-1H-indazol-5-yl]amino}-5,6,7,8-tetrahydro[1]benzothieno[2,3-d]pyrimidin-7-yl]methanone]
IC50: 0.2 nM

C=CCN(C)c1cc2[nH]ncc2cc1Nc1ncnc2sc3c(c12)CC[C@H](C(=O)N(C)C)C3 [Example 128, (7S)—N,N-Dimethyl-4-({6-[methyl(prop-2-en-1-yl)amino]-1H-indazol-5-yl}amino)-5,6,7,8-tetrahydro[1]benzothieno[2,3-d]pyrimidine-7-carboxamide]
IC50: 1 nM

CN(C)CCOc1cc2[nH]ncc2cc1Nc1ncnc2sc3c(c12)CC[C@H](C(=O)N1CCC(N(C)C)CC1)C3 [Example 134, [(7S)-4-({6-[2-(Dimethylamino)ethoxy]-1H-indazol-5-yl}amino)-5,6,7,8-tetrahydro[1]benzothieno[2,3-d]pyrimidin-7-yl][4-(dimethylamino)piperidin-1-yl]methanone]
IC50: 8.3 nM

CN(CCC(F)(F)F)C(=O)[C@H]1CCc2c(sc3ncnc(Nc4cc5cn[nH]c5cc4N4CCCC4)c23)C1 [Example 245, (7S)—N-Methyl-4-{[6-(pyrrolidin-1-yl)-1H-indazol-5-yl]amino}-N-(3,3,3-trifluoropropyl)-5,6,7,8-tetrahydro[1]benzothieno[2,3-d]pyrimidine-7-carboxamide]
IC50: 0.6 nM

CN(C)CCCOc1cc2[nH]ncc2cc1Nc1ncnc2sc3c(c12)CC[C@H](C(=O)N(C)C)C3 [Example 203, (7S)-4-({6-[3-(Dimethylamino)propoxy]-1H-indazol-5-yl}amino)-N,N-dimethyl-5,6,7,8-tetrahydro[1]benzothieno[2,3-d]pyrimidine-7-carboxamide]
IC50: 17.1 nM

COc1cc2[nH]ncc2cc1Nc1ncnc2sc3c(c12)CC[C@H](C(=O)N1CC2CC2C1)C3 (stereo partly drawn) [Example 209, 3-Azabicyclo[3.1.0]hex-3-yl{(7S)-4-[(6-methoxy-1H-indazol-5-yl)amino]-5,6,7,8-tetrahydro[1]benzothieno[2,3-d]pyrimidin-7-yl}methanone]
IC50: 0.5 nM

CN1CCN(C(=O)[C@H]2CCc3c(sc4ncnc(Nc5ccc6[nH]ncc6c5)c34)C2)CC1 [Example 14, [(7S)-4-(1H-Indazol-5-ylamino)-5,6,7,8-tetrahydro[I]benzothieno[2,3-d]pyrimidin-7-yl](4-methylpiperazin-1-yl)methanone]
IC50: 5.5 nM | Activity-Ratio MKNK1: 16.1

CN(C)C(=O)[C@H]1CCc2c(sc3ncnc(Nc4cc5cn[nH]c5cc4OCC(C)(C)C)c23)C1 [Example 176, (7S)-4-{[6-(2,2-Dimethylpropoxy)-1H-indazol-5-yl]amino}-N,N-dimethyl-5,6,7,8-tetrahydro[1]benzothieno[2,3-d]pyrimidine-7-carboxamide]
IC50: 39.8 nM

COCCN(CCO)C(=O)[C@H]1CCc2c(sc3ncnc(Nc4cc5cn[nH]c5cc4OC)c23)C1 [Example 42, (7S)—N-(2-Hydroxyethyl)-N-(2-methoxyethyl)-4-[(6-methoxy-1H-indazol-5-yl)amino]-5,6,7,8-tetrahydro[1]benzothieno[2,3-d]pyrimidine-7-carboxamide]
IC50: 0.3 nM | Activity-Ratio MKNK1: 33.2

COc1cc2[nH]ncc2cc1Nc1ncnc2sc3c(c12)CC[C@H](C(=O)N(C)CCC(F)(F)F)C3 [Example 123, (7S)-4-[(6-Methoxy-1H-indazol-5-yl)amino]-N-methyl-N-(3,3,3-trifluoropropyl)-5,6,7,8-tetrahydro[1]benzothieno[2,3-d]pyrimidine-7-carboxamide]
IC50: 0.4 nM

C[C@@H]1COCCN1C(=O)[C@H]1CCc2c(sc3ncnc(Nc4cc5cn[nH]c5cc4Br)c23)C1 [Example 232, {(7S)-4-[(6-Bromo-1H-indazol-5-yl)amino]-5,6,7,8-tetrahydro[1]benzothieno[2,3-d]pyrimidin-7-yl}[(3R)-3-methylmorpholin-4-yl]methanone]
IC50: 5.8 nM

C[C@H]1COCCN1C(=O)[C@H]1CCc2c(sc3ncnc(Nc4cc5cn[nH]c5cc4OC4CNC4)c23)C1 [Example 268, [(7S)-4-{[6-(Azetidin-3-yloxy)-1H-indazol-5-yl]amino}-5,6,7,8-tetrahydro[1]benzothieno[2,3-d]pyrimidin-7-yl][(3S)-3-methylmorpholin-4-yl]methanone]
IC50: 0.6 nM

CCOc1cc2[nH]ncc2cc1Nc1ncnc2sc3c(c12)CC[C@H](C(=O)N1CCC(N(C)C)CC1)C3 [Example 122, [4-(Dimethylamino)piperidin-1-yl]{(7S)-4-[(6-ethoxy-1H-indazol-5-yl)amino]-5,6,7,8-tetrahydro[1]benzothieno[2,3-d]pyrimidin-7-yl}methanone]
IC50: 0.2 nM

C[C@@H]1COCCN1C(=O)[C@H]1CCc2c(sc3ncnc(Nc4cc5cn[nH]c5cc4N4CCCC4)c23)C1 [Example 184, [(3R)-3-Methylmorpholin-4-yl][(7S)-4-{[6-(pyrrolidin-1-yl)-1H-indazol-5-yl]amino}-5,6,7,8-tetrahydro[1]benzothieno[2,3-d]pyrimidin-7-yl]methanone]
IC50: 0.4 nM

COc1cc2[nH]ncc2cc1Nc1ncnc2sc3c(c12)CC[C@H](C(=O)N1CCN(C)CC1)C3 [Example 48, {(7S)-4-[(6-Methoxy-1H-indazol-5-yl)amino]-5,6,7,8-tetrahydro[1]benzothieno[2,3-d]pyrimidin-7-yl}(4-methylpiperazin-1-yl)methanone]
IC50: 0.4 nM

CCOc1cc2[nH]ncc2cc1Nc1ncnc2sc3c(c12)CC[C@H](C(=O)N(CCO)CCO)C3 [Example 77, (7S)-4-[(6-Ethoxy-1H-indazol-5-yl)amino]-N,N-bis(2-hydroxyethyl)-5,6,7,8-tetrahydro[1]benzothieno[2,3-d]pyrimidine-7-carboxamide]
IC50: 0.1 nM

C[C@@H]1CN(C(=O)[C@H]2CCc3c(sc4ncnc(Nc5cc6cn[nH]c6cc5F)c34)C2)C[C@H](C)O1 [Example 221, [(2R,6S)-2,6-Dimethylmorpholin-4-yl]{(7S)-4-[(6-fluoro-1H-indazol-5-yl)amino]-5,6,7,8-tetrahydro[1]benzothieno[2,3-d]pyrimidin-7-yl}methanone]
IC50: 3.8 nM

C[C@@H](CN)Oc1cc2[nH]ncc2cc1Nc1ncnc2sc3c(c12)CC[C@H](C(=O)N1CCOC[C@@H]1C)C3 [Example 145, {(7S)-4-[(6-{[(2S)-1-Aminopropan-2-yl]oxy}-1H-indazol-5-yl)amino]-5,6,7,8-tetrahydro[1]benzothieno[2,3-d]pyrimidin-7-yl}[(3S)-3-methylmorpholin-4-yl]methanone]
IC50: 5.1 nM

CC(C)(C)COc1cc2[nH]ncc2cc1Nc1ncnc2sc3c(c12)CC[C@H](C(=O)N1CCOCC1)C3 [Example 279, [(7S)-4-{[6-(2,2-Dimethylpropoxy)-1H-indazol-5-yl]amino}-5,6,7,8-tetrahydro[1]benzothieno[2,3-d]pyrimidin-7-yl](morpholin-4-yl)methanone]
IC50: 84.2 nM

CC(C)N(C)C(=O)[C@H]1CCc2c(sc3ncnc(Nc4ccc5[nH]ncc5c4)c23)C1 [Example 7, (7S)-4-(1H-Indazol-5-ylamino)-N-methyl-N-(propan-2-yl)-5,6,7,8-tetrahydro[1]benzothieno[2,3-d]pyrimidine-7-carboxamide]
IC50: 6 nM

COc1cc2[nH]ncc2cc1Nc1ncnc2sc3c(c12)CC[C@H](C(=O)N(C)CC(=O)N(C)C)C3 [Example 52, (7S)—N-[2-(Dimethylamino)-2-oxoethyl]-4-[(6-methoxy-1H-indazol-5-yl)amino]-N-methyl-5,6,7,8-tetrahydro[1]benzothieno[2,3-d]pyrimidine-7-carboxamide]
IC50: 0.2 nM

CCN(CCOC)C(=O)[C@H]1CCc2c(sc3ncnc(Nc4cc5cn[nH]c5cc4N4CCC(N(C)C)CC4)c23)C1 [Example 157, (7S)-4-({6-[4-(Dimethylamino)piperidin-1-yl]-1H-indazol-5-yl}amino)-N-ethyl-N-(2-methoxyethyl)-5,6,7,8-tetrahydro[1]benzothieno[2,3-d]pyrimidine-7-carboxamide]
IC50: 21.6 nM
